melting point	SMILES
113 to 115 °C	CCOC(=O)c1c(C)n(C(=O)c2ccccc2)c2ccc(Oc3nc(OC)cc(OC)n3)c(C(=O)O)c12
211 °C	O=c1[nH]c(C2(F)CC2)nc2c1cnn2-c1ncc(C(F)(F)F)cc1Cl
135 to 140 °C	NS(=O)(=O)c1ncccc1C(F)(F)F
58 to 59 °C	O=C(O)C(=O)c1ccc(OCCCc2ccccc2)cc1
146 to 148 °C	O=C1NC(=O)C(Cc2ccc(O)c(C(=O)NCc3ccc(C(F)(F)F)cc3)c2)S1 (stereo not given)
162 to 164 °C	CCOC(=O)c1nc(N)sc1C(C)=O
119 to 121 °C	CCOc1ccc(S(=O)c2ccccc2)cc1[N+](=O)[O-] (stereo not given)
228 to 230 °C	CN1C(=O)N(c2ccc(Cl)cc2)S(=O)(=O)c2ccc(OCC(=O)O)cc21
104 °C	CC(C)(C=C(Br)Br)C(=O)Nc1ccc(Cl)cc1
160 °C	CCCC(CO)n1cnc(C(N)=O)c1 (stereo not given)
174 to 177 °C	O=C(c1ccc(-c2ncn[nH]2)cc1Cl)N1Cc2cccn2Cc2ccccc21
145 to 146 °C	COc1cc2ccnc(C=Cc3c(Cl)cccc3Cl)c2cc1OC
138 to 139 °C	CC(=O)OC1C(OC(=O)C=Cc2ccccc2)C=C(C)C(=O)CC1(C)C (stereo not given)
161 °C	C[C@]1(Cn2ccnc2)[C@H](C(=O)O)N2C(=O)C[C@H]2S1(=O)=O
168 to 170 °C	CC1CC(N)=NN1c1ccc(Cl)cn1 (stereo not given)
261 to 264 °C	Cc1cc(C)c2ncc(NC(=O)c3cc(C)c(O)c(C)c3C)c(-c3ccccc3Cl)c2c1
154 °C	Cc1ccc(-c2cc(NCc3cccc(CNc4cc(-c5ccc(C)cc5)[nH]n4)n3)n[nH]2)cc1
116 to 120 °C	CCOc1cc2c(cc1OC)C(c1ccc(C(=O)N3CCOCC3)cc1)=N[C@@H]1CCOC[C@H]21
104 to 107 °C	COC(=O)C(CC(=O)O)Cc1ccc(OC)c(OC)c1 (stereo not given)
154 to 159 °C	CC(C)(C)OC(=O)N1CCC(O)(CS(=O)(=O)NC(=O)c2cc(C(F)(F)F)cc(C(F)(F)F)c2)CC1
186 to 187 °C	O=C1COc2ccc(CO)cc2N1
255 °C	O=C(c1cccs1)N1CCN(c2c([N+](=O)[O-])c(=O)n(Cc3ccccc3)c3ncccc23)CC1
184 °C	Oc1ccccc1CNc1cncc(Br)c1
186 °C	O=C(O)C1CC(C(=O)O)C(C(=O)O)C1C(=O)O (stereo not given)

melting point	SMILES
181 to 185 °C	N#Cc1c(N2CCN(C(=O)c3ccc(C(F)(F)F)cc3)CC2)c2ccccc2n(Cc2ccc(F)cc2)c1=O
87.5 to 89 °C	CC(NC(=O)CCCCCCCCC#CC#CCCCCCCCCC(=O)NC(C)c1ccccc1)c1ccccc1 (stereo not given)
178 to 179 °C	CCOC(=O)NNc1cc(C)c(-c2ccc(Br)cc2)nn1
194 to 197 °C	Cc1c(/C=C/C(=O)c2ccc3ccccc3c2)ncn1C(c1ccccc1)(c1ccccc1)c1ccccc1
179 to 180 °C	CC(=O)Oc1cc2c(c(OC(C)=O)c1)C1CCC3(C)C(=O)CCC3C1CC2 (stereo not given)
126 to 127 °C	O=C(O)Cc1coc2cc(OCc3ccccc3OCc3ccc(C(F)(F)F)cc3)ccc12
97 to 99 °C	COc1ccc(Cl)c([N+](=O)[O-])c1Cl
209 to 210 °C	COc1cc(C)nc2c(OCc3c(Cl)ccc(N(C)C(=O)CN4C(=O)c5ccccc5C4=O)c3Cl)cccc12
112 °C	O=C(Nc1cccc(I)c1)C1CC1
116 to 117 °C	O=C1C=CC(O)(c2ccccn2)C=C1
49 to 51 °C	O=C(c1ccccc1)c1ccc(SCCO)cc1
137 °C	O[C@H]1COC(c2ccc3c(c2)OCO3)=N[C@@H]1c1ccccc1 (racemic)
138 to 139 °C	CC(C)(C)OC(=O)NC(CI)c1ccc(F)cc1 (stereo not given)
121 to 123 °C	COc1ccccc1C=CC(=O)CC(=O)C=Cc1ccccc1OC
174 °C	CC1=C(C(=O)OC2CCCC2)C(c2cccc([N+](=O)[O-])c2)C([N+](=O)[O-])=C(C)N1 (stereo not given)
131 to 133 °C	CC(C)=C1OC(=O)N(c2cc(OC3CCCC3)c(Cl)cc2F)C1=N
245 to 248 °C	Cc1cc(C(=O)O)cc(Cl)c1C1=NC(C)(C(C)C)C(=O)N1 (stereo not given)
184 to 186 °C	O=Cc1c[nH]nc1-c1ccc([N+](=O)[O-])o1
90 to 91.5 °C	Cc1nc(-c2cccc(I)c2)no1
202 to 203 °C	COC(=O)c1cc(S(N)(=O)=O)c(OC)c2c1OCCO2
138 to 139 °C	N#CCc1cccc2c1CCN=C2c1ccc([N+](=O)[O-])cc1
111 to 114 °C	CCON(C(=O)c1cn(C)nc1C(F)F)C(C)Cc1c(Cl)cc(Cl)cc1Cl (stereo not given)
229 to 230 °C	O=C1CC(c2ccccc2)CC(=O)N1c1ccncc1
130 to 132 °C	CC(C)(C)c1nn(-c2cc(O)c(Cl)cc2Cl)c(=O)s1

melting point	SMILES
256 to 258 °C	CN1CC(=O)Nc2ccc(C#N)cc2C1=O
243 to 268 °C	CCCC1OCC(C)n2c1nc1c(N)nc3ccccc3c12 (stereo not given)
212 to 214 °C	COc1ccc(NC(=O)c2csc(Nc3ccc(C)cn3)n2)cc1OC
71 to 73 °C	N#CCc1cccc(CBr)c1[N+](=O)[O-]
106 to 107 °C	COc1ccc2c(c1)CCC1C2CCC2(C)C1CCC2N(C=O)CCC(C)C (stereo not given)
42 to 44 °C	CC[C@@H](Nc1nc(NCc2ccccc2)c2ncn(C(C)C)c2n1)[C@H](C)O
158 to 159 °C	O=C(O)c1ccc(C(Cl)=C(Cl)Cl)cn1
51 to 52 °C	CC1(C)Cc2cccc(OCC3CO3)c2O1 (stereo not given)
219 to 220 °C	CCS(=O)(=O)c1nsc(NC(=O)NC)c1C(N)=O
208 to 210 °C	FC(F)(F)c1ccc(C2=NN(C(=S)Nc3ccc(Cl)cc3)CC2c2ccccc2)cc1 (stereo not given)
240 to 241 °C	COc1cc(Nc2c(C#N)cnc3cc4cc(OC)c(OCCN5CCOCC5)cc4cc23)c(Cl)cc1C
120 to 121 °C	CNC(=S)NCCCSc1ncccn1
199 to 200 °C	COc1nc(NC(=O)NS(=O)(=O)c2ccccc2OC(Cl)=CCl)nc(OC)n1
164 to 166 °C	O=c1nc(-c2cccc(S(=O)CCCc3ccccc3)n2)sc2ccccc12 (stereo not given)
196 to 198 °C	COC(=O)C1(O)C(=O)Nc2ccc(C(F)(F)F)cc2CC1c1ccc(OC)cc1 (stereo not given)
106 to 107 °C	C#CCN(C(=O)c1cnc(Cl)nc1C(F)(F)F)S(=O)(=O)c1cccc(Cl)c1
202 to 203 °C	O=S(=O)(c1ccc(Nc2ccnc3cc(C(F)(F)F)ccc23)cc1)N1CCN(c2ccccn2)CC1
110 to 112 °C	Cc1cccc(CNC(=O)CC#N)c1
212 to 215 °C	CC(=O)N1CCN=C1Nc1c(C)c(C)nn1C
172 to 173 °C	COC(=O)[C@H]1C[C@@H](NC(=O)OC(C)(C)C)c2c(Cl)cc(Cl)cc2N1 (relative stereo)
> 300 °C	CC1(C)CC(=O)Nc2cc3nc(-c4ccc(-n5ccnc5)cc4)[nH]c3cc21
56 to 59 °C	CN(Cc1ccc2c(Br)c(OCc3nnn[nH]3)ccc2c1)C(=O)c1oc2ccccc2c1CCc1ccccc1
138 to 140 °C	O=C(Nc1cccc(OCc2cccnc2)c1)N1CCCC1
127 to 129 °C	CON1CCC2(CC1)C(=O)C(c1c(C)cc(C)cc1C)([N+](=O)[O-])C(=O)N2C (stereo not given)

melting point	SMILES
155 to 157 °C	CC(O)c1ccc(-c2ccc3c(c2)CC(C(=O)O)O3)cc1 (stereo not given)
186 to 188 °C	Cn1cc(C(=O)NCc2ccc(Cl)cc2)c(=O)c2cc(C#CCO)cc(F)c21
135 to 140 °C	O=C1C(=O)c2ccc(Br)cc2C2=C1SCC1(CCN(C(=O)c3cccc(Cl)c3)CC1)O2
185 to 186 °C	c1ccc(N2CCOCC2)c(N=C2NCCN2)c1
38 to 40 °C	CC#CCOCCCCCCCCCCCCOC(=O)C1CC1
153 to 155 °C	CN1CC(CCCl)Oc2ccc([N+](=O)[O-])cc2C1=S (stereo not given)
69 to 71 °C	COCC(COC)Oc1cc(Oc2ccc(S(C)(=O)=O)nc2)cc2cc(C3=NCC(CCO)S3)[nH]c12 (stereo not given)
160 to 162 °C	Cc1cc(-c2nc3ccccc3c(=O)n2-c2ccc(C(C)C)cc2)cc(C)c1OCCO
185 to 187 °C	Cc1nc(N2CCN(CC(C)C)C2=O)sc1C(=O)NCc1ccncc1
209 to 211 °C	O=C1NC(=O)C2(CC(O)c3ccc(F)cc32)N1 (stereo not given)
127 to 128 °C	C#CCc1c(Cl)nc(NC=O)nc1Cl
105 to 106 °C	O=C(NCCCCCOc1cc(CN2CCCCC2)ccn1)c1cn[nH]c1
160 to 161 °C	COCCOc1ccc(COC(=O)NS(=O)(=O)NCC(C)C)c(Oc2ncc(C(F)(F)F)cc2Cl)c1
109 to 110 °C	CC1(O)CN(c2ccc([N+](=O)[O-])cc2F)C1
140 to 141 °C	COC(=O)C(Cc1ccccc1)Oc1ccc2cc(-c3ccc(-c4ccccc4)[nH]3)ccc2c1 (stereo not given)
225 to 226 °C	CS(=O)(=O)c1ccc(-n2cnc3ccc(-c4nnc(CCc5cccc(C#N)c5)o4)cc32)cc1
104 to 106 °C	c1ccc(CSc2nc3ncccn3n2)cc1
55 to 57 °C	C#CCC(=NO)C1=CCCN(C)C1
133 to 135 °C	CCC(CC)n1cc(Br)nc(N2CCc3cc(OC)cc(Br)c32)c1=O
64 to 110 °C	Cc1cc(SC2=C(O)CC(CCc3ccco3)(C(C)C)OC2=O)c(C(C)(C)C)cc1CO (stereo not given)
195 to 198 °C	COc1ccc(C(=O)Nc2c(Cl)cncc2Cl)cc1OC1COCC1OCSC (stereo not given)

SMILES	melting point
CC1(C)CCCN(C(=O)CN2C(=O)C(NC(=O)Nc3cccc(C(=O)OC(C)(C)C)c3)C(=O)N(c3ccccc3F)c3ccccc32)C1 (stereo not given)	170 °C
CNC(=O)N1N=C(c2ccc(N)cc2)c2ccc(Cl)cc2CC1C (stereo not given)	134 to 136 °C
Clc1cc(N2CCNCC2)ccn1	119 to 120 °C
CC(C)CCn1cc(C(=O)Nc2nccs2)c2ccc(Cl)cc21	179 to 180 °C
CC1(O)CC2(C)C(=O)CCC2C2CCC3=CC(=O)CCC3(C)C21 (stereo not given)	150 to 151 °C
O=c1[nH]c2c(Cl)cccc2c(=O)n1CCCN1CC=C(c2cccc(Cl)c2)CC1	210 to 215 °C
CCN(CC)C(=S)NC1CC2c3cccc4[nH]c(I)c(c34)CC2N(C)C1 (stereo not given)	198 °C

Source: a melting point compilation (Tetko et al.; mined from patent text by program, amines drawn as free bases though some values may be those of a salt)
